Results on 2 molecules are retold here after ChEMBL document CHEMBL2057199, “Development of novel M1 antagonist scaffolds through the continued optimization of the MLPCN probe ML012” (Bioorg Med Chem Lett, 2012).

For data set [1], the target named is T1, Muscarinic acetylcholine receptor M1 (Homo sapiens) (UniProt P11229).
T1 sequence (whole entry): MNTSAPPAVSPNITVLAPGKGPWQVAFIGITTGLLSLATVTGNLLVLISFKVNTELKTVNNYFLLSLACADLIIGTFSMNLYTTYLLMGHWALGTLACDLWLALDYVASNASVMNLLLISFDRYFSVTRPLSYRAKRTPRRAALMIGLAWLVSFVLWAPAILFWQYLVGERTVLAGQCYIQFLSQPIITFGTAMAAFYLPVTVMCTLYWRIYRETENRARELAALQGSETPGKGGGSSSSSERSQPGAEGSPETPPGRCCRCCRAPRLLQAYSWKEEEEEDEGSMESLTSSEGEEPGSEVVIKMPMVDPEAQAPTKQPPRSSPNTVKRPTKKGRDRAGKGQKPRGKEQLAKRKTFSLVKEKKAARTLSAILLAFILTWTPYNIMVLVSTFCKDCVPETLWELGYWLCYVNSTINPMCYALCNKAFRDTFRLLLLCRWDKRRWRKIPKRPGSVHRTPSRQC
Nature of the data set: Antagonist activity at human muscarinic M1 receptor expressed in CHO cells assessed as inhibition of acetylcholine-induced calcium mobilization at 30 uM measured after 15 mins by fluorescence analysis. Type of data set: functional, cell-based. Details: scale not given: the % may be the effect or the level left.

Data set [2] concerns the target T2, Muscarinic acetylcholine receptor M2 (Homo sapiens, UniProt P08172).
T2 sequence (P08172 whole entry): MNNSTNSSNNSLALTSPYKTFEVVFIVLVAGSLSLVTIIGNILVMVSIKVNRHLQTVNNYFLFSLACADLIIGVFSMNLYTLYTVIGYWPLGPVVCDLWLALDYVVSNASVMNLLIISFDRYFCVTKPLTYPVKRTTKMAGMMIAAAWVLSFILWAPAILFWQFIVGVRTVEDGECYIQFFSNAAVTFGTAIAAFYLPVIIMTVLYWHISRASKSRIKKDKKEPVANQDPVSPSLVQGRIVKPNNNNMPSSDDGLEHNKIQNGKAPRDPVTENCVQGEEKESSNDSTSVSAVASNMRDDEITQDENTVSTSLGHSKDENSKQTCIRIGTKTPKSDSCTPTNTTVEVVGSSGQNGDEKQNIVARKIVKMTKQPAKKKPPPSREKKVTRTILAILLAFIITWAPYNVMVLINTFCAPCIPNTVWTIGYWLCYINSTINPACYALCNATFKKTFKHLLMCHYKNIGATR
Nature of the data set: Antagonist activity at human muscarinic M2 receptor assessed as inhibition of acetylcholine-induced calcium mobilization. It counts as functional.

Data set [3] has as its target T3, Muscarinic acetylcholine receptor M5 (Homo sapiens, UniProt P08912).
T3 sequence (P08912 whole entry): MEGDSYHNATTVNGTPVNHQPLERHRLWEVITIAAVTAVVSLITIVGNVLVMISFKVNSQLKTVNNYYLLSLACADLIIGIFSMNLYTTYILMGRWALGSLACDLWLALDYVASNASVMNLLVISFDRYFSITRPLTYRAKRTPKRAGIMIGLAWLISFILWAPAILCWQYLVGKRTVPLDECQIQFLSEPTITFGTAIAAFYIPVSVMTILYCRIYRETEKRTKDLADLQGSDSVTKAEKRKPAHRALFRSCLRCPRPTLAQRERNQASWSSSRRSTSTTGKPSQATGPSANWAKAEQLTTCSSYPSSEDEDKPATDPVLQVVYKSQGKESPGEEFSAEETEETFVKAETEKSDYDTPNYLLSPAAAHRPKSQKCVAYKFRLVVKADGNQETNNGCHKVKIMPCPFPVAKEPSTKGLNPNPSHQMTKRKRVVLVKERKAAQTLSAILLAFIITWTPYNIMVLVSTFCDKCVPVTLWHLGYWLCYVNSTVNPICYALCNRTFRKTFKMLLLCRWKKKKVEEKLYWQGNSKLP
Nature of the data set: Antagonist activity at human muscarinic M5 receptor assessed as inhibition of acetylcholine-induced calcium mobilization. Type of data set: functional.

Data set [4] concerns the target Muscarinic acetylcholine receptor M3 (Homo sapiens, UniProt P20309). The experiment in a line: Antagonist activity at human muscarinic M3 receptor assessed as inhibition of acetylcholine-induced calcium mobilization. It counts as functional.
Data set [5] addresses T4, Muscarinic acetylcholine receptor M4 (Homo sapiens, UniProt P08173).
T4 sequence (P08173 whole entry): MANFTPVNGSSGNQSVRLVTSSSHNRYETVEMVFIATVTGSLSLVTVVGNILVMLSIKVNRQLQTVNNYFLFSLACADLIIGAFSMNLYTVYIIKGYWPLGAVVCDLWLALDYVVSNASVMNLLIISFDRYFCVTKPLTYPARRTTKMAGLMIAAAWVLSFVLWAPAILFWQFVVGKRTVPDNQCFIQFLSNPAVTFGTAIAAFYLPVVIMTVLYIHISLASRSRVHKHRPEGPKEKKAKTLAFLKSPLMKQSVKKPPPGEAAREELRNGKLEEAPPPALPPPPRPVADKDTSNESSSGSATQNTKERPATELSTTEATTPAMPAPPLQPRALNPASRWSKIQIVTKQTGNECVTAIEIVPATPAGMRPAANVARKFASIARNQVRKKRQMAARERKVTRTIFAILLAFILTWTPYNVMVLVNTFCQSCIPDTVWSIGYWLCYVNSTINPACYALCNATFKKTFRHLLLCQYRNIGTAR
The experiment in a line: Antagonist activity at human muscarinic M4 receptor assessed as inhibition of acetylcholine-induced calcium mobilization. It counts as functional.

The target in data set [6] is T1, Muscarinic acetylcholine receptor M1 (Homo sapiens). The experiment in a line: Antagonist activity at human muscarinic M1 receptor assessed as rightward shift in acetylcholine concentration response curve. Type of data set: functional.
A further data set concerns Brain. The experiment in a line: Fraction unbound in rat brain homogenate. Type of data set: ADME, tissue-based.
For data set [7], the system named is Plasma. Nature of the data set: Fraction unbound in rat plasma. Type of data set: ADME, cell-free.
The next data set addresses Cytochrome P450 3A4 (Homo sapiens, UniProt P08684). Nature of the data set: Inhibition of CPY3A4.
Another data set deals with T5, Cytochrome P450 1A2 (Homo sapiens, UniProt P05177).
T5 sequence (P05177 whole entry): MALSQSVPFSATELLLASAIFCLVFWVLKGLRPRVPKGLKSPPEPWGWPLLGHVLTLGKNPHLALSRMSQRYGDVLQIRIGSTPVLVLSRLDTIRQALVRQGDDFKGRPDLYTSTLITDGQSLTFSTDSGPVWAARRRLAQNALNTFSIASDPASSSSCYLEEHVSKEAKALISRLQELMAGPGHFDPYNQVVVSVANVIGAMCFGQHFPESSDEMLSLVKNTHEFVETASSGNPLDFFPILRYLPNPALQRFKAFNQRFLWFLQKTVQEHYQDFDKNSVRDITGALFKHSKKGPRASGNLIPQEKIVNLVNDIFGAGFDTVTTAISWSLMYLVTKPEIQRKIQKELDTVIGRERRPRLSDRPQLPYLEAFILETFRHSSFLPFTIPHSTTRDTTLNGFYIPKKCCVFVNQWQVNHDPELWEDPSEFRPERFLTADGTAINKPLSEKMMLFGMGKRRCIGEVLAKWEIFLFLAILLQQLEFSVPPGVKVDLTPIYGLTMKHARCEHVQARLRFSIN
The experiment in a line: Inhibition of CPY1A2.

The test system of data set [8] is Plasma. The experiment in a line: Fraction unbound in human plasma. It counts as ADME, cell-free.
Data set [9] in a line: Plasma clearance in iv dosed rat. Type of data set: ADME, organism-based.
The target of a further data set is Cytochrome P450 2D6 (Homo sapiens, UniProt P10635). Nature of the data set: Inhibition of CPY2D6.
Another data set addresses Cytochrome P450 2C9 (Homo sapiens, UniProt P11712). The experiment in a line: Inhibition of CPY2C9.
Data set [10] deals with T6, Muscarinic acetylcholine receptor M1 (Homo sapiens, UniProt P11229).
T6 sequence (P11229 whole entry): T1 sequence (whole entry)
The experiment in a line: (§1) Antagonist activity at human muscarinic M1 receptor expressed in CHO cells assessed as inhibition of acetylcholine-induced calcium mobilization by fluorescence analysis. The following applies: read-out: IC50. It counts as functional, cell-based.

The target of data set [11] is T1, Muscarinic acetylcholine receptor M1 (Homo sapiens). The data set is described as §1. Type of data set: functional, cell-based.
The target is the same in data set [12]. The experiment in a line: Displacement of [3H]NMS from human muscarinic M1 receptor.

Calls of active or inactive are those of the source. No cut-off for these calls is given here.

Muscarinic acetylcholine receptor M3, sequence (P20309 whole entry): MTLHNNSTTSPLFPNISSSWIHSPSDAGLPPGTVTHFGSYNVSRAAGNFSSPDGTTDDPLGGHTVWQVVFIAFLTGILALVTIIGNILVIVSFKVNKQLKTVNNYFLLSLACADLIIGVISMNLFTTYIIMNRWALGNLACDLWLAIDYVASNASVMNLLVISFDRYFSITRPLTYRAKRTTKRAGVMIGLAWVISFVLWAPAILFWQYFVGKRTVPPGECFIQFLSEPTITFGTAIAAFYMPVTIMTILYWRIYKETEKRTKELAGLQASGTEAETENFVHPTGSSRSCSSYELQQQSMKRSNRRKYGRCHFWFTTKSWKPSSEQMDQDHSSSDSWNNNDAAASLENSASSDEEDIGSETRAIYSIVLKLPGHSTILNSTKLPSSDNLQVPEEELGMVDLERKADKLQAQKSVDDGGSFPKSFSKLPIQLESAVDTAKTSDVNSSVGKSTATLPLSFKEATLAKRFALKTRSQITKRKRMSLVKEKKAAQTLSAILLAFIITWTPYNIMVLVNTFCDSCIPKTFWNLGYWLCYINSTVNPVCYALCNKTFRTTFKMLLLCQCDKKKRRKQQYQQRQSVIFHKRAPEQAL
Cytochrome P450 3A4, sequence (P08684 whole entry): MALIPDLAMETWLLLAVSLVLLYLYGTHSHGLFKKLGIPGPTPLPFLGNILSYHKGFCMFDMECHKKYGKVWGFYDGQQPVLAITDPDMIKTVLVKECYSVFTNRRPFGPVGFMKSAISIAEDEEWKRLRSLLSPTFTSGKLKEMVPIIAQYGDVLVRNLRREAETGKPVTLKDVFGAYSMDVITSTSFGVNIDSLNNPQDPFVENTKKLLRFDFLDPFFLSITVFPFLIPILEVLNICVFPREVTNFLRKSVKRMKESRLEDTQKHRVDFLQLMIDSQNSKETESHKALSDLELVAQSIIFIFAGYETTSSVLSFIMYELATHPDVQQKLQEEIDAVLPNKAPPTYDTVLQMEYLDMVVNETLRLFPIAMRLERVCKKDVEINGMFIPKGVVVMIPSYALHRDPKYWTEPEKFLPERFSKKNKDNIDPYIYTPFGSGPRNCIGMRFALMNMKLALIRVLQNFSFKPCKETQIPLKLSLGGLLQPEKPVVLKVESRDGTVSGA
Cytochrome P450 2C9, sequence (P11712 whole entry): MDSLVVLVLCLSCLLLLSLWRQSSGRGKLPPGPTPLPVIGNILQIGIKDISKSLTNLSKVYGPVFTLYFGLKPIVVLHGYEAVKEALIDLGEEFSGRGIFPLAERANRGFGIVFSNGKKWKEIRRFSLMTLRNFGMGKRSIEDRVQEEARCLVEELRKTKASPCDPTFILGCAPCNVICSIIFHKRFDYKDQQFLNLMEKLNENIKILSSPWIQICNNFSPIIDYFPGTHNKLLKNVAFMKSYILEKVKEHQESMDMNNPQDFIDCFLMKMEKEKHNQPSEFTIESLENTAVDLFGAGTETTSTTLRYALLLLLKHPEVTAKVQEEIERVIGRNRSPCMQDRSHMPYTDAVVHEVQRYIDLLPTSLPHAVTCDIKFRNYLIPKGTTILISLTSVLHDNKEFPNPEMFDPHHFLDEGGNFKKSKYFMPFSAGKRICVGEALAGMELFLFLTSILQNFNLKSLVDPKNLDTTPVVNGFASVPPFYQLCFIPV
Cytochrome P450 2D6, sequence (P10635 whole entry): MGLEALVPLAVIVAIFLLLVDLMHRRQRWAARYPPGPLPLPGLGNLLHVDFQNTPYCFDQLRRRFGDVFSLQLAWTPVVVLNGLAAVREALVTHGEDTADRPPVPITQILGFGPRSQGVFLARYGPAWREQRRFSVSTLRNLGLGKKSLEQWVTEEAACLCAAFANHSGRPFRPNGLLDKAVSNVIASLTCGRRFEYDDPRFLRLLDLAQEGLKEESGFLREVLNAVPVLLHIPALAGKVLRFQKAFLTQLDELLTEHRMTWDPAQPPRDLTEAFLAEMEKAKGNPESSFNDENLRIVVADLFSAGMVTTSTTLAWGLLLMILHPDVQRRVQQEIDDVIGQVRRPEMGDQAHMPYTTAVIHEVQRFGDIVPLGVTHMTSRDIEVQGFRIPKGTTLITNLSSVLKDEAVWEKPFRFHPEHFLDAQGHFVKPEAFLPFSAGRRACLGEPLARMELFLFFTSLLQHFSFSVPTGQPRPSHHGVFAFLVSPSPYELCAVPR

`O=C(C1CN(S(=O)(=O)c2cccc3cnccc23)C1)N1CCN(c2ccncc2)CC1`: in data set [1], the Activity is 2.7%. For the same molecule, the IC50 in data set [2], in [3], in [4] and in data set [5] was greater than 10 µM throughout.
For `O=C(C1CN(S(=O)(=O)c2cccc3cnccc23)C1)N1CC2CN(c3ccncc3)CC2C1` (configuration not stated), the outcome in [6] and in data set [12] was Active. Besides, the Fu in the data set with Brain is 0.08%; in the data set on Plasma [7], 0.6%; with Plasma [8], 0.9%. The Activity in [1] came out at 2.8%. Also, the IC50 against Cytochrome P450 3A4 was less than 2.5 µM; against Cytochrome P450 1A2 it was greater than 30 µM; in data set [2] it was greater than 10 µM; on Cytochrome P450 2D6, less than 2.5 µM; in data set [3] it was greater than 10 µM; in data set [4], greater than 10 µM. Besides, the 50% inhibitory concentration (IC50) in [5] was greater than 10 µM; on Cytochrome P450 2C9, less than 2.5 µM; in data set [10], 0.23 µM. The clearance in data set [9] amounted to 68.6 mL/min/kg. The inhibition result in [11] is “Dose-dependent effect”.
